Results as given in paper PMC7270175, “Micelle-stabilized Olfactory Receptors for a Bioelectronic Nose Detecting Butter Flavors in Real Fermented Alcoholic Beverages” (Scientific Reports, 2020).

Molecular target: T1, ODR-10 (Caenorhabditis elegans, UniProt Q18807)
T1 construct: ODR-10 in pET-DEST42 (V5 and Ni-column purification tag), E. coli BL21(DE3), SDS-solubilized, reconstituted in DDM/Cymal 6 detergent micelles; also pcDNA3 ODR-10 in HEK-293 cells
T1 sequence (Q18807 1-339): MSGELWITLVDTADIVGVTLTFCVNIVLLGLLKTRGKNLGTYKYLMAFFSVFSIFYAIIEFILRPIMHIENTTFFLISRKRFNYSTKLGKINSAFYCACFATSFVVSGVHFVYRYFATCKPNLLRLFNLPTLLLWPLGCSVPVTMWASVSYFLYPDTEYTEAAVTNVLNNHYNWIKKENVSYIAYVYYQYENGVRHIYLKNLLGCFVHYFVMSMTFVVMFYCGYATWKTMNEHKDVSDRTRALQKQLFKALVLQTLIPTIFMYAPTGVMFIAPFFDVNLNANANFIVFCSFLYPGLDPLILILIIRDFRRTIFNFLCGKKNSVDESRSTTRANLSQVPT
Experiment: carbon nanotube FET, Hill fit of conductance response
Format: binding
Settings: read-out: K

CC(=O)C(C)=O [Diacetyl, 2,3-butanedione]
Kd: ~1.7 pM
